From PMC6449286, “Influence of Multidrug Resistance-Associated Proteins on the Excretion of the ABCC1 Imaging Probe 6-Bromo-7-[^11C]Methylpurine in Mice” (Molecular Imaging and Biology, 2018)
Marks after values point to notes of the source that are not given here.

Assays:
[1] = set-up: method as in PMID 1976057; details: rats ref 24; cited from earlier work
[2] = Assessment of glutathione conjugation by radio-TLC in mouse tissues and fluids; details: for Percentage of S-(6-(7-[^11C]methylpurinyl))glutathione in bile / Percentage of S-(6-(7-[^11C]methylpurinyl))glutathione in brain / Percentage of S-(6-(7-[^11C]methylpurinyl))glutathione in kidney / Percentage of S-(6-(7-[^11C]methylpurinyl))glutathione in liver / Percentage of S-(6-(7-[^11C]methylpurinyl))glutathione in urine: 15 min after i.v. injection; for Percentage of S-(6-(7-[^11C]methylpurinyl))glutathione in plasma: 15 min after i.v. injection of 6-bromo-7-[^11C]methylpurine, n=3
Method: Assessment of Glutathione Conjugation
6-Bromo-7-[11C]methylpurine (26 ± 8 MBq in a volume of 0.1 ml, 0.15 ± 0.06 nmol) was administered i.v. to wild-type and Abcc1(-/-) mice (n = 3 per group) under isoflurane anesthesia.
After a period of 15 min, blood was collected from the retro-bulbar plexus and animals were euthanized. Brain, liver, kidneys, urine and bile were collected. Blood was centrifuged to obtain plasma and proteins were precipitated by the addition of acetonitrile (1 µl per µl plasma). Liver, kidneys and brain were homogenized using an Ultra Turrax T10 (IKA Laboratory Equipment, Staufen, Germany) and proteins were precipitated with acetonitrile (1 ml per liver, 0.2 ml per kidneys/brain). Urine and bile were diluted with acetonitrile (1 µl per µl urine and bile). All solutions were vortexed and then centrifuged (12,000 x g, 1 min, 21°C). Each supernatant (plasma, brain, liver, kidney, urine, bile, 5 µl each) and diluted radiotracer solution as reference were spotted on silica gel 60F 254 nm TLC plates (10 x 20 cm; Merck, Darmstadt, Germany) and plates were developed in water/acetonitrile/acetic acid (92/8/1, v/v/v). Detection was performed by placing the TLC plates on multisensitive phosphor screens (Perkin-Elmer). […]

Abcc1 [3] = biological target: T1, Abcc1 (Mus musculus, UniProt O35379); test: 6-bromo-7-[^11C]methylpurine PET in Abcc1 knockout mice; assay type: in vivo
T1 construct: from tissue; host or cells: living C57BL/6J mice (wild-type versus Abcc1 knockout), obtained from the University of Oslo
T1 sequence (O35379 whole entry): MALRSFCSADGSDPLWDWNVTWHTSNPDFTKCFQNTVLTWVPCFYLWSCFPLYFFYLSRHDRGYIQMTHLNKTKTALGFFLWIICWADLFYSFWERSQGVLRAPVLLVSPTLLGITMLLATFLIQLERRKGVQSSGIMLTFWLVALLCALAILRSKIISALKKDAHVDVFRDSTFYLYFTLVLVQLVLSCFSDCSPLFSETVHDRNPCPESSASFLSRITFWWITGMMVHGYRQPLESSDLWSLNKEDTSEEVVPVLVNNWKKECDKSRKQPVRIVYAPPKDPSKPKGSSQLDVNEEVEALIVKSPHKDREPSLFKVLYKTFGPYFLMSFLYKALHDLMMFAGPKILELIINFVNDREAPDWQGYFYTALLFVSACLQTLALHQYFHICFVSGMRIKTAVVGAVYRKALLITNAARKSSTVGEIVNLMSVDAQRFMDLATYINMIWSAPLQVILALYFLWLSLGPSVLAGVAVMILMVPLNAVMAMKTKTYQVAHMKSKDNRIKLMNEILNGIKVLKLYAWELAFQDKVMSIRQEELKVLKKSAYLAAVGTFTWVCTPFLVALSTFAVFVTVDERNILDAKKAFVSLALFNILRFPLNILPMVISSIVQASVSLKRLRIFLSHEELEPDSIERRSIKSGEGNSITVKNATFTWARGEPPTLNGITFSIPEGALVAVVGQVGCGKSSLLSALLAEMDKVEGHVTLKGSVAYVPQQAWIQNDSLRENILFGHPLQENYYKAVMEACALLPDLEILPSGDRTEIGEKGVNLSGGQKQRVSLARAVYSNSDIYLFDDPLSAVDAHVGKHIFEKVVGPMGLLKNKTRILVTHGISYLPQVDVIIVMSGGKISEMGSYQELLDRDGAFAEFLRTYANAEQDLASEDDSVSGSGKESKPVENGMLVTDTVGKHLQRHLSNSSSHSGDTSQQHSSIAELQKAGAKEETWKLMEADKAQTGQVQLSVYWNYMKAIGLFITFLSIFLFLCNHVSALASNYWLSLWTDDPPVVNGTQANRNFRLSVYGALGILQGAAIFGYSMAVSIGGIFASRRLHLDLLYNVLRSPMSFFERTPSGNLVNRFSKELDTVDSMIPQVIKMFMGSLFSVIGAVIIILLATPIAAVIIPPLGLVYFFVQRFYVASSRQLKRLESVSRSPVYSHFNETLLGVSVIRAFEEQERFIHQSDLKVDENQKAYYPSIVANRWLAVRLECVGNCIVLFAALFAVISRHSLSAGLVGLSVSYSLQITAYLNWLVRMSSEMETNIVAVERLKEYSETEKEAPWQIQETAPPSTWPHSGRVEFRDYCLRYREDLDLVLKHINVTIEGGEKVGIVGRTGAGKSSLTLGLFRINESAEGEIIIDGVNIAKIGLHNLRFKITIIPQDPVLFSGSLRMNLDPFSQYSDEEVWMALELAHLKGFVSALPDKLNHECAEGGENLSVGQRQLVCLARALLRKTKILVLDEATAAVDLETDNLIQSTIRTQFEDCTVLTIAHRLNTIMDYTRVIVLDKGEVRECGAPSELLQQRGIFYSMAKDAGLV
Method: (§1) Groups of wild-type, Abcc4^(−/−), Abcc1^(−/−), and Abcc1^(+/−) mice underwent a baseline PET scan with 6-bromo-7-[^11C]methylpurine at 30 min after i.p. injection of vehicle solution (PBS). […] In addition, groups of wild-type and Abcc1^(−/−) mice were used to determine the percentage of unchanged 6-bromo-7-[^11C]methylpurine in different tissues and fluids.
(§2) During all experimental procedures, animals were kept under isoflurane anesthesia. PET imaging was conducted on a microPET Focus220 scanner (Siemens Medical Solutions, Knoxville, TN, USA). […] Subsequently, 6-bromo-7-[^11C]methylpurine (29 ± 9 MBq in a volume of 0.1 ml, 0.17 ± 0.11 nmol) was administered as an i.v. bolus via the lateral tail vein, and a 90-min dynamic PET scan (energy window: 250–750 keV; timing window: 6 ns) was initiated at the start of radiotracer injection. […] Blood was centrifuged to obtain plasma and aliquots of blood and plasma were counted for radioactivity in a gamma counter (Wizard 1470; Perkin-Elmer, Waltham, MA, USA).
(§3) The PET data were sorted into 25 frames with a duration increasing from 5 s to 20 min. Fourier re-binning of the three-dimensional sinograms followed by a two-dimensional filtered back-projection with a ramp filter resulting in a voxel size of 0.4 × 0.4 × 0.796 mm^3 was used to reconstruct the PET data. Using AMIDE software, brain, right lung, left kidney, urinary bladder, liver, duodenum, intestine, and gall bladder were manually outlined on the PET images to derive concentration-time curves expressed in units of standardized uptake value (SUV = (radioactivity per g/injected radioactivity) × body weight). In addition, the left ventricle of the heart was outlined to obtain an image-derived blood curve. For all organs, the area under the concentration-time curve (AUC) from 0 to 90 min after radiotracer injection was calculated using Prism 7 software (GraphPad Software, La Jolla, CA, USA) and organ-to-blood AUC ratios were calculated. From the log-transformed concentration-time curves in blood, brain, lung, kidney, and liver, the elimination rate constant (kelimination) of radioactivity was determined by linear regression analysis from 17.5 to 80 min after radiotracer injection. A graphical analysis method (integration plot) was used to estimate the rate constant for transfer of radioactivity from blood into different organs (brain, kidney, and liver, kuptake, ml/min/g tissue) using data measured from 0.3 to 3.5 min after radiotracer injection, as described in detail before. Moreover, the rate constant for tubular secretion of radioactivity (kurine, min^−1) was determined from 12.5 to 65 min after radiotracer injection using integration plot analysis.

Abcc4 [4] = test: 6-bromo-7-[^11C]methylpurine PET in Abcc4^(−/−) mice; assay type: in vivo; details: Abcc4^(−/−) vs wild-type mice
Method: as §1, §2
The PET data were sorted into 25 frames with a duration increasing from 5 s to 20 min. […] Using AMIDE software, brain, right lung, left kidney, urinary bladder, liver, duodenum, intestine, and gall bladder were manually outlined on the PET images to derive concentration-time curves expressed in units of standardized uptake value (SUV = (radioactivity per g/injected radioactivity) × body weight). […] From the log-transformed concentration-time curves in blood, brain, lung, kidney, and liver, the elimination rate constant (kelimination) of radioactivity was determined by linear regression analysis from 17.5 to 80 min after radiotracer injection. A graphical analysis method (integration plot) was used to estimate the rate constant for transfer of radioactivity from blood into different organs (brain, kidney, and liver, kuptake, ml/min/g tissue) using data measured from 0.3 to 3.5 min after radiotracer injection, as described in detail before. […]

[5] = Baseline 6-bromo-7-[^11C]methylpurine PET in vehicle-treated wild-type mice; assay type: in vivo
Method: as §1, §2, §3

Abcc1 [6] = biological target: T1, Abcc1; set-up: method as in PMID 23596979, PMID 18985052; details: cited from earlier work
[7] = MK571 concentrations in plasma and kidneys (HPLC); assay type: in vivo, mice; details: mouse, intraperitoneal, 300 mg/kg
Method: Assessment of Glutathione Conjugation […]
euthanized. Brain, liver, kidneys, urine and bile were collected. Blood was centrifuged to obtain […]
fluorescence detector (G1321 FLD). […]
obtain a clear supernatant. The resulting supernatants were injected into the HPLC column.
(5 µm, 100-4.6 mm) preceded by a Chromolith Performance RP-18 pre-column (5 µm, 10-4.6 mm), which was isocratically eluted with acetonitrile/methanol/0.1% aqueous acetic acid (30/20/50, v/v/v) at a flow rate of 2 ml/min. For fluorescence detection, an excitation wavelength of 250 nm and an emission wavelength of 410 nm were used. MK571 eluted with a retention time of 10.1 min. Linear calibration curves were generated by spiking drug-free mouse plasma […]
average correlation coefficient: > 0.999).

ABCC2 = test system: ABCC2; set-up: method as in PMID 12695538, PMID 10760098; details: in vitro ref 20, 21; read-out: IC50 for inhibition of substrate transport by ABCC2; cited from earlier work
ABCC4 [8] = test system: ABCC4; set-up: method as in PMID 12695538, PMID 10760098; details: in vitro ref 20, 21; read-out: IC50 for inhibition of substrate transport by ABCC4; cited from earlier work
[9] = Abcc1^(−/−) relative to wild-type mice ref 12, 13

## CN(C)C(=O)CCS[C@H](SCCC(=O)O)c1cccc(/C=C/c2ccc3ccc(Cl)cc3n2)c1 (single isomer, unassigned) [(R)-enantiomer of MK571]
[1]
  Apparent tissue unbound fraction: 0.18

## CN(C)C(=O)CCS[C@@H](SCCC(=O)O)c1cccc(/C=C/c2ccc3ccc(Cl)cc3n2)c1 (single isomer, unassigned) [(S)-enantiomer of MK571]
[1]
  Apparent tissue unbound fraction: 0.33

## [11CH3]n1cnc2ncnc(Br)c21 [6-bromo-7-[^11C]methylpurine]
[2]; mouse, in vivo, 15 min
  Unchanged 6-bromo-7-[^11C]methylpurine in tissues and fluids: In none of the investigated tissues and fluids unchanged 6-bromo-7-[^11C]methylpurine could be detected
Abcc1 [3]; Abcc1^(−/−) mice, venous blood at end of PET scan
  Plasma-to-blood ratio of radioactivity: 0.60 ± 0.04
Abcc1 [3]; Abcc1^(−/−) vs wild-type mice
  Decrease in kurine: 3.4 fold
  Decrease in plasma-to-blood ratio of radioactivity: 2.4 fold
  Increase in blood AUC: 3.0 fold
  Increase in kuptake, liver: 1.6 fold
  Reduction in kelimination, blood: 3.6 fold
  Reduction in kelimination, lungs: 5.7 fold
  Reduction in kelimination,brain: 9.4 fold
Abcc1 [3]; heterozygous Abcc1^(+/−) vs wild-type mice
  Reduction in kelimination,brain: 1.3 fold
Abcc4 [4]
  Decrease in kelimination, brain: 1.5 fold
  Decrease in kelimination, kidneys: 1.4 fold
  Decrease in kurine: 2.3 fold
[5]; vehicle-treated wild-type mice
  kelimination,brain: 1.37 ± 0.27 h⁻¹
  kuptake,brain: 0.113 ± 0.028 ml/min/g brain
[5]; vehicle-treated wild-type mice, assuming hepatic blood flow 1.0 ml/min/g tissue
  Extraction ratio, liver: 0.21
[5]; vehicle-treated wild-type mice, assuming renal blood flow 4.1 ml/min/g tissue
  Extraction ratio, kidneys: 0.18
[5]; wild-type mice, venous blood at end of PET scan
  Plasma-to-blood ratio of radioactivity: 1.46 ± 0.14
Abcc1 [6]; [9]
  Reduction in kelimination of radioactivity, brain: 9.3 fold
  Reduction in kelimination of radioactivity, lungs: 17.2 fold
Abcc1 [6]; mice, within 15 min after i.v. injection ref 12, 13
  Conversion into glutathione conjugate in brain and lungs: almost quantitatively converted into its glutathione conjugate

## CN(C)C(=O)CCSC(SCCC(=O)O)c1cccc(/C=C/c2ccc3ccc(Cl)cc3n2)c1 (stereo not drawn) [MK571]
[7]; C57BL/6J, kidney, Kidney unbound concentration of MK571, mice, from rat tissue unbound fraction of (R)-enantiomer
  concentration at 120 min: 98 µM
[7]; C57BL/6J, kidney, Kidney unbound concentration of MK571, mice, from rat tissue unbound fraction of (S)-enantiomer
  concentration at 120 min: 180 µM
[7]; C57BL/6J, kidney, Mean total MK571 concentration in the kidneys, wild-type mice, as restated in discussion
  concentration at 120 min: 544 µM
[7]; kidney, MK571 concentration in kidneys, wild-type mice, approximately 120 min after 300 mg/kg i.p.
  concentration at 120 min: 544 ± 58 µM
[7]; plasma, MK571 concentration in plasma, wild-type mice, approximately 120 min after 300 mg/kg i.p.
  concentration at 120 min: 251 ± 58 µM
ABCC2
  IC50: 4 µM
ABCC4 [8]
  IC50: 10 µM

## Cn1cnc2ncnc(SC[C@H](NC(=O)CC[C@H](N)C(=O)O)C(=O)NCC(=O)O)c21 [S-(6-(7-[^11C]methylpurinyl))glutathione]
[2]; Abcc1^(−/−) mice
  Percentage of S-(6-(7-[^11C]methylpurinyl))glutathione in bile: 79 ± 1%
  Percentage of S-(6-(7-[^11C]methylpurinyl))glutathione in brain: 52 ± 0.4%
  Percentage of S-(6-(7-[^11C]methylpurinyl))glutathione in kidney: 63 ± 1%
  Percentage of S-(6-(7-[^11C]methylpurinyl))glutathione in liver: 32 ± 4%
  Percentage of S-(6-(7-[^11C]methylpurinyl))glutathione in urine: 63 ± 3^a %
  Percentage of S-(6-(7-[^11C]methylpurinyl))glutathione in plasma: 43 ± 2^a %
[2]; wild-type mice
  Percentage of S-(6-(7-[^11C]methylpurinyl))glutathione in bile: 81 ± 5%
  Percentage of S-(6-(7-[^11C]methylpurinyl))glutathione in brain: 60 ± 8%
  Percentage of S-(6-(7-[^11C]methylpurinyl))glutathione in kidney: 58 ± 2%
  Percentage of S-(6-(7-[^11C]methylpurinyl))glutathione in liver: 37 ± 2%
  Percentage of S-(6-(7-[^11C]methylpurinyl))glutathione in urine: 77 ± 4%
  Percentage of S-(6-(7-[^11C]methylpurinyl))glutathione in plasma: 51 ± 2%
